Measurements taken from ChEMBL document CHEMBL4257083, “Novel cytochrome p450 inhibitors and their method of use” (2016).

Key:
[1] = target: T1, Steroid 17-alpha-hydroxylase/17,20 lyase (Homo sapiens, UniProt P05093); assay: Inhibition of recombinant CYP17 (unknown origin) expressed in human AD293 cells using 21[3H]-17alpha-hydroxyl-pregnenolone as substrate pretreated for 60 mins followed by substrate addition and measured after 4 hrs by Topcount method; format: cell-based
T1 sequence (P05093 whole entry): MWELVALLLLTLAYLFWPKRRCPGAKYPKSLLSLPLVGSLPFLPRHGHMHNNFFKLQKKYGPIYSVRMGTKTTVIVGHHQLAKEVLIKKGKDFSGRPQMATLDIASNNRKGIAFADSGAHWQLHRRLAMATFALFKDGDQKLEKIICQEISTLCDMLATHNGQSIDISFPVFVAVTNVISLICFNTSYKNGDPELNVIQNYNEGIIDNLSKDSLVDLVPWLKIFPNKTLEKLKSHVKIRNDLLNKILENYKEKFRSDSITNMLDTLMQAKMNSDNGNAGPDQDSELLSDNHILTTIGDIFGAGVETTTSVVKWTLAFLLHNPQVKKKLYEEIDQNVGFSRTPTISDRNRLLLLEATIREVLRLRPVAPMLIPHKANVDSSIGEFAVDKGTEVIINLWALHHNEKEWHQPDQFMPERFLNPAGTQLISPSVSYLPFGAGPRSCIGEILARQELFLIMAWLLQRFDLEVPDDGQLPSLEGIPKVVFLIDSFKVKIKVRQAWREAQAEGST

[2] = target: T2, Cytochrome P450 11B1, mitochondrial (Homo sapiens, UniProt P15538); assay: Inhibition of recombinant CYP11B1 (unknown origin) expressed in human AD293 cells using 11-deoxycortisol as substrate pretreated for 60 mins followed by substrate addition and measured after 12 hrs by LC/MS analysis; format: cell-based
T2 sequence (P15538 whole entry): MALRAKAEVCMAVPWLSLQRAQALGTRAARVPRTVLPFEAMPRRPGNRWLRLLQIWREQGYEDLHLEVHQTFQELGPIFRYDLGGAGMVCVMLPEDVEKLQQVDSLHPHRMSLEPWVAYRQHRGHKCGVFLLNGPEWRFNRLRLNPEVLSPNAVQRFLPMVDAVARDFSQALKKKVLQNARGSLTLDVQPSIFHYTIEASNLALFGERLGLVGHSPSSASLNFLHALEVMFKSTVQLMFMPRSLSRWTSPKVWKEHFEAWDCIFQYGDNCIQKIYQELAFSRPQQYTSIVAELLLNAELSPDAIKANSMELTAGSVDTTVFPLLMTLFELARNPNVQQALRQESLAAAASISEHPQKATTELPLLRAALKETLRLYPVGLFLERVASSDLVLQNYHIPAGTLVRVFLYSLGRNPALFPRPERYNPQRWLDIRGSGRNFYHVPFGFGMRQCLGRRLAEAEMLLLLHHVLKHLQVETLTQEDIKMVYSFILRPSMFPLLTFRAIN

Steroid 21-hydroxylase = target: T3, Steroid 21-hydroxylase (Homo sapiens, UniProt P08686); assay: Inhibition of recombinant CYP21 (unknown origin) expressed in human AD293 cells using 17alpha-hydroxyprogesterone as substrate pretreated for 60 mins followed by substrate addition and measured after 45 mins by LC/MS analysis; format: cell-based
T3 sequence (P08686 whole entry): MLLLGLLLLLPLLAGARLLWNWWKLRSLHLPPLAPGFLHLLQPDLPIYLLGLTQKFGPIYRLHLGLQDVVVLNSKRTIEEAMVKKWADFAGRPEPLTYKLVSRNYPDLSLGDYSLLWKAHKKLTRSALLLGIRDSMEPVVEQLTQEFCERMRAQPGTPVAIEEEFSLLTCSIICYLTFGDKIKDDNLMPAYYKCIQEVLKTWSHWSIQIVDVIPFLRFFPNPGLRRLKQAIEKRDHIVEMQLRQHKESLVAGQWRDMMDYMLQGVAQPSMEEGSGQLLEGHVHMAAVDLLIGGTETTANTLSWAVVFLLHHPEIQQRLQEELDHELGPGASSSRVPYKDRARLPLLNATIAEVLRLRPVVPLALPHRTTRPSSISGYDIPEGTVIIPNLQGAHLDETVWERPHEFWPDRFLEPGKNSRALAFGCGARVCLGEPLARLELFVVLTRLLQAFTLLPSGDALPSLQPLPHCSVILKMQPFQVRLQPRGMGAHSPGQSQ

[3] = Tmax in guinea pig at 10 mg/kg, po; format: ADME, organism-based, Cavia porcellus; details: in vivo
[4] = Oral bioavailability in guinea pig at 10 mg/kg; format: ADME, organism-based, Cavia porcellus; details: in vivo

CC(=O)N1CCN(c2ccc(/C=C/c3cc(F)cc(-c4ccncc4)c3)cc2)CC1
IC50 [1]: 4.6 to 5 nM
IC50 [2]: 1200 nM
IC50 (Steroid 21-hydroxylase): 430 nM
Tmax [3]: 3 h
F [4]: 184.21%

CC(=O)N1CCN(c2ccc(/C=C/c3cc(O)cc(-n4ccnc4)c3)cc2)CC1
IC50 [1]: 220 nM
IC50 [2]: 4800 nM
IC50 (Steroid 21-hydroxylase): 1950 nM

O=C(c1cccnc1)N1CCN(c2ccc(/C=C/c3cc(Cl)cc(Cn4ccnc4)c3)cc2)CC1
IC50 [1]: 26 nM
IC50 [2]: 4.9 nM
IC50 (Steroid 21-hydroxylase): ≥ 10000 nM

Fc1cc(/C=C/c2ccc(N3CCN(C4=NCCCO4)CC3)cc2)cc(Cn2ccnc2)c1
IC50 [1]: 42 nM
IC50 [2]: 17 nM
IC50 (Steroid 21-hydroxylase): 1000 nM

N#CCS(=O)(=O)N1CCN(c2ccc(/C=C/c3cc(F)cc(Cn4ccnc4)c3)cc2)CC1
IC50 [1]: 86 nM
IC50 [2]: 73 nM
IC50 (Steroid 21-hydroxylase): ≥ 10000 nM

Clc1cc(/C=C/c2ccc(N3CCN(C4=NCCO4)CC3)cc2)cc(-c2ccncc2)c1
IC50 [1]: 5 nM
IC50 [2]: 3500 nM
IC50 (Steroid 21-hydroxylase): 1200 nM

CC(C)S(=O)(=O)N1CCN(c2ccc(/C=C/c3cc(Cl)cc(-c4ccncc4)c3)cc2)CC1
IC50 [1]: 5 nM
IC50 [2]: 58 nM
IC50 (Steroid 21-hydroxylase): 565 nM

CS(=O)(=O)N1CCN(c2ccc(/C=C/c3cc(Cl)cc(Cn4ccnc4)c3)cc2)CC1
IC50 [1]: 180 nM
IC50 [2]: 24 nM
IC50 (Steroid 21-hydroxylase): 2200 nM

Clc1cc(/C=C/c2ccc(N3CCN(C4=NCCO4)CC3)cc2)cc(Cn2ccnc2)c1
IC50 [1]: 100 nM
IC50 [2]: 130 nM
IC50 (Steroid 21-hydroxylase): 3500 nM

N=C(N)N1CCN(c2ccc(/C=C/c3cc(Cl)cc(Cn4ccnc4)c3)cc2)CC1
IC50 [1]: 2500 nM
IC50 [2]: 1300 nM
IC50 (Steroid 21-hydroxylase): ≥ 10000 nM

O=S(=O)(C1CC1)N1CCN(c2ccc(/C=C/c3cc(F)cc(-c4ccncc4)c3)cc2)CC1
Tmax [3]: 8 h

Oc1cc(/C=C/c2ccc(Br)cc2)cc(-n2ccnc2)c1
IC50 [1]: 1200 nM
IC50 [2]: 1400 nM
IC50 (Steroid 21-hydroxylase): ≥ 10000 nM

CS(=O)(=O)N1CCN(c2ccc(/C=C/c3cc(F)cc(-c4ccncc4)c3)cc2)CC1
IC50 [1]: 5 nM
IC50 [2]: 200 nM
IC50 (Steroid 21-hydroxylase): 740 nM

CC(=O)N1CCN(c2ccc(/C=C/c3cc(Cl)cc(Cn4ccnc4)c3)cc2)CC1
IC50 [1]: 42 nM

CC(C)S(=O)(=O)N1CCN(c2ccc(/C=C/c3cc(F)cc(Cn4ccnc4)c3)cc2)CC1
IC50 [1]: 39 nM
IC50 [2]: 5 nM
IC50 (Steroid 21-hydroxylase): 700 nM

O=S(=O)(CCCCl)N1CCN(c2ccc(/C=C/c3cc(Cl)cc(Cn4ccnc4)c3)cc2)CC1
IC50 [1]: 31 nM
IC50 [2]: 13 nM
IC50 (Steroid 21-hydroxylase): 2870 nM

CS(=O)(=O)N1CCN(c2ccc(/C=C/c3cc(F)cc(Cn4ccnc4)c3)cc2)CC1
IC50 [1]: 58 nM
IC50 [2]: 49 nM
IC50 (Steroid 21-hydroxylase): ≥ 10000 nM

CC(=O)N1CCN(c2ccc(/C=C/c3cc(O)cc(Cn4ccnc4)c3)cc2)CC1
IC50 [1]: 88 nM
IC50 [2]: 51 nM
IC50 (Steroid 21-hydroxylase): 2400 nM

Fc1cc(/C=C/c2ccc(N3CCN(C4=NCCO4)CC3)cc2)cc(Cn2ccnc2)c1
IC50 [1]: 117 nM
IC50 [2]: 130 nM
IC50 (Steroid 21-hydroxylase): ≥ 10000 nM

O=S(=O)(c1c[nH]cn1)N1CCN(c2ccc(/C=C/c3cc(Cl)cc(Cn4ccnc4)c3)cc2)CC1
IC50 [1]: 6.2 nM
IC50 [2]: 7 nM
IC50 (Steroid 21-hydroxylase): ≥ 10000 nM

O=[N+]([O-])c1cccc(S(=O)(=O)N2CCN(c3ccc(/C=C/c4cc(Cl)cc(Cn5ccnc5)c4)cc3)CC2)c1
IC50 [1]: 9 nM
IC50 [2]: 4 nM
IC50 (Steroid 21-hydroxylase): 160 nM

N=C(N)N1CCN(c2ccc(/C=C/c3cc(F)cc(-c4ccncc4)c3)cc2)CC1
IC50 [1]: 18 nM
IC50 [2]: 3600 nM
IC50 (Steroid 21-hydroxylase): ≥ 10000 nM

O=S(=O)(C1CC1)N1CCN(c2ccc(/C=C/c3cc(Cl)cc(-c4ccncc4)c3)cc2)CC1
IC50 [1]: 5 nM
IC50 [2]: 51 nM
IC50 (Steroid 21-hydroxylase): 416 nM

O=[N+]([O-])c1cc(S(=O)(=O)N2CCN(c3ccc(/C=C/c4cc(Cl)cc(Cn5ccnc5)c4)cc3)CC2)ccc1Cl
IC50 [1]: 106 nM
IC50 [2]: 57 nM
IC50 (Steroid 21-hydroxylase): ≥ 10000 nM

CC(C)S(=O)(=O)N1CCN(c2ccc(/C=C/c3cc(Cl)cc(Cn4ccnc4)c3)cc2)CC1
IC50 [1]: 38 nM
IC50 [2]: 240 nM
IC50 (Steroid 21-hydroxylase): 85 nM

N=C(N)N1CCN(c2ccc(/C=C/c3cc(F)cc(Cn4ccnc4)c3)cc2)CC1
IC50 [1]: 1200 nM
IC50 [2]: 1400 nM
IC50 (Steroid 21-hydroxylase): ≥ 10000 nM

Fc1cc(/C=C/c2ccc(N3CCN(C4=NCCO4)CC3)cc2)cc(-c2ccncc2)c1
IC50 [1]: 5 nM
IC50 [2]: 1800 nM
IC50 (Steroid 21-hydroxylase): 1200 nM

N#Cc1cccc(S(=O)(=O)N2CCN(c3ccc(/C=C/c4cc(Cl)cc(Cn5ccnc5)c4)cc3)CC2)c1
IC50 [1]: 21 nM
IC50 [2]: 4 nM
IC50 (Steroid 21-hydroxylase): 1200 nM

CS(=O)(=O)N1CCN(c2ccc(/C=C/c3cc(Cl)cc(-c4ccncc4)c3)cc2)CC1
IC50 [1]: 5 nM
IC50 [2]: 450 nM
IC50 (Steroid 21-hydroxylase): 840 nM

O=S(=O)(C1CC1)N1CCN(c2ccc(/C=C/c3cc(Cl)cc(Cn4ccnc4)c3)cc2)CC1
IC50 [2]: 22 nM
IC50 (Steroid 21-hydroxylase): 340 nM

CCS(=O)(=O)N1CCN(c2ccc(/C=C/c3cc(Cl)cc(Cn4ccnc4)c3)cc2)CC1
IC50 [1]: 24 nM
IC50 (Steroid 21-hydroxylase): 540 nM

O=C(c1cccc([N+](=O)[O-])c1)N1CCN(c2ccc(/C=C/c3cc(Cl)cc(Cn4ccnc4)c3)cc2)CC1
IC50 [1]: 17 nM
IC50 [2]: 4 nM
IC50 (Steroid 21-hydroxylase): ≥ 10000 nM

N=C(N)N1CCN(c2ccc(/C=C/c3cc(Cl)cc(-c4ccncc4)c3)cc2)CC1
IC50 [2]: 10000 nM
IC50 (Steroid 21-hydroxylase): ≥ 10000 nM

O=S(=O)(N1CCN(c2ccc(/C=C/c3cc(F)cc(-c4ccncc4)c3)cc2)CC1)C(F)(F)F
Tmax [3]: 3.33 h
bioavailability [4]: 22.1%

CCS(=O)(=O)N1CCN(c2ccc(/C=C/c3cc(F)cc(-c4ccncc4)c3)cc2)CC1
Tmax [3]: 5.33 h
bioavailability [4]: 22.3%

CC(=O)N1CCN(c2ccc(CCc3cc(F)cc(-c4ccncc4)c3)cc2)CC1
IC50 [1]: 21 nM
IC50 [2]: 1.4 nM
IC50 (Steroid 21-hydroxylase): ≥ 10000 nM
